Data: patent US9776992B2, “1-oxo-1,2-dihydroisoquinolin-7-yl-(5-substituted-thiophen-2-yl)-sulfonamide compounds, formulations containing those compounds, and their use as AICARFT inhibitors in the treatment of cancers” (Eli Lilly and Company, priority 2014, dated 2017)

Molecular target: AICARFT (Homo sapiens, UniProt P31939)
Assay: MS detection of ZMP in low folate media cultured NCI-H460 cells
Type: cell-based
Design: endogenous in cells; host or cells: NCI-H460
Details: for IC50: Mean ± SEM, ZMP concentration by LC-MS, NCI-H460 cells in low folate media, 16 hours; for AICARFT inhibition in low folate media assay (in words): low levels of folate in the media, summary of Table 16
Procedure: Grow NCI-H460 cells in complete high folate RPMI media (ATCC #30-2001) until cellular confluence reaches ˜80%. Wash cells with PBS, trypsinize, resuspend cells in complete low folate RPMI media (Gibco #27016-021) and perform a cell count. Transfer 1.25×10^6 cells to a T225 flask containing complete low folate RPMI media (40 mL). Grow for seven days. Split cells again with complete low folate media if confluence surpasses 80%. Wash cells with PBS, trypsinize, resuspend cells in complete low folate RPMI media, and perform a cell count. Aliquot 10×10^6 cells in complete low folate media (1 mL)+5% DMSO per cryovial. Use a cell freezing apparatus to freeze cells in a slow and controlled manner in a −80° C. freezer. The next day, transfer cells to liquid nitrogen for long term storage. Thaw frozen cells from cryovial in 37° C. water bath, wash cells once with low folate assay medium: folate free RPMI 1640 medium (Gibco, #27016-021), Glucose (Sigma, #G5767), Hepes (Hyclone, #SH30237.01), Na Pyruvate (Hyclone, #Sh30239.01), 10% FBS (Hyclone, #SH30070.03). Adjust cells concentration to 250,000 cells/mL with medium, plate cells by adding 100 μl/well (25,000 cells/well) into Biocoat poly-D-lysine 96-well plate (BD, #35-4640), and incubate at 37° C. overnight with 5% CO2. Treat cells with 20 μl/well compound diluted in media containing 3% DMSO. Incubate at 37° C. for 16 hours with 5% CO2, then remove the medium and add 1× SureFire Lysis Buffer (50 μL) (PerkinElem, SureFire® Kit component) to each well and incubate at room temperature for 10 min with gentle shaking.
Cells grown in a 96-well plate have the media removed and are lysed in AlphaScreen® SureFire® lysis buffer. Standard curves containing ZMP, dUMP and AICAr at concentrations of 5-10,000 ng/mL are prepared in 40 mM ammonium acetate, pH 4. Aliquots (40 μL) of each standard or sample are combined in a deep 96-well plate with 160 μL of internal standard solution containing ^13C5-ZMP (custom synthesis) and ^13C5-AICAr (custom synthesis) at 100 ng/mL in 40 mM ammonium acetate, pH 4. A Beckman Biomek FX liquid handler is used to add 400 μL of DCM to each sample. Samples are sealed, vortexed for 5 minutes, and placed in the refrigerator for at least 30 minutes. The samples are centrifuged for 10 minutes at 4,000 rpm and 4° C. using an Eppendorf 5810R centrifuge, and the Biomek liquid handler is used to transfer 75 μL of the aqueous layer into a clean 96-well plate. The plates are sealed prior to analysis.
The LC-MS method utilizes a Shimadzu Prominence 20A HPLC system connected to an AB Sciex 5500™ or an AB Sciex 6500™ triple quadrupole mass spectrometer running Analyst® 2.1 software. Extracted samples are separated using a Thermo Hypercarb™ Javelin guard column (2.1×20 mm, […]) with an injection volume of 15 μL and a flow rate of 1 mL/minute. Mobile phase A is a 95:5 mixture of 50 mM ammonium formate, pH 4 and ACN. Mobile phase B is a 70:30 mixture of ACN and MeOH spiked with 0.3% formic acid and 2% concentrated ammonium hydroxide solution (v/v). The gradient is as follows: 0 minutes, 0% B; 0.25 minutes, 0% B; 2.00 minutes, 30% B; 2.01 minutes, 95% B; 3.50 minutes, 95% B, 3.51 minutes, 0% B, 5.00 minutes, stop.
The mass spectrometer is operated in positive ion TurboIonSpray® multiple reaction monitoring mode with a source temperature of 700° C. The precursor and fragment ions for each analyte are: ZMP (339→110), ^13C5-ZMP (344→110), dUMP (309→81), AICAr (259→127) and ^13C5-AICAr (264→127). Calibration curves are constructed by plotting analyte concentrations vs. analyte/internal standard peak area ratios and performing a linear fit of the data using a 1/concentration weighting with AB Sciex MultiQuant™ 2.1 software. Back-calculated ZMP concentrations are fit to a four-parameter logistic equation using ACTIVITYBASE 4.0 to determine IC50 values.

Sequence of AICARFT (P31939 whole entry): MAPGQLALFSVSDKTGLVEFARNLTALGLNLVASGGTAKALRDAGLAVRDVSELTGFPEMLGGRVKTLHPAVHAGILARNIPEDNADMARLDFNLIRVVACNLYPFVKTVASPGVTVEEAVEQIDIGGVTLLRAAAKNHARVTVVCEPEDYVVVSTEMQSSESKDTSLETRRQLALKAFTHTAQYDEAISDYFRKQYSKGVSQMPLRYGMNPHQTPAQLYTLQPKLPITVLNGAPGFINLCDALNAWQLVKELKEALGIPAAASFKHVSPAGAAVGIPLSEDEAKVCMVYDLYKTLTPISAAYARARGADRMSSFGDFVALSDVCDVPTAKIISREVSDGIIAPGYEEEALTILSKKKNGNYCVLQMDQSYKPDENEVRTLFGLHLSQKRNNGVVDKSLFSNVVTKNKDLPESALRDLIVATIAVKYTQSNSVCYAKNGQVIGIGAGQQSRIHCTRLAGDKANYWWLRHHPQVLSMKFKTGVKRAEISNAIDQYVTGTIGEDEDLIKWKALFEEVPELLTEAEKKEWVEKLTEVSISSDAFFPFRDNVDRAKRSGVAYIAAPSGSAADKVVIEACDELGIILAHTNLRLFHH

O=c1[nH]ccc2cc(F)c(NS(=O)(=O)c3ccc(N4C[C@@H](O)[C@@H](F)C4)s3)cc12 (single isomer, unassigned) [Example 33]
IC50: 0.00793 µM
AICARFT inhibition in low folate media assay (in words): still inhibit AICARFT

O=c1[nH]ccc2cc(F)c(NS(=O)(=O)c3ccc([C@@H]4CC[C@@H](O)C4)s3)cc12 (single isomer, unassigned) [Example 46]
IC50: 0.0396 µM
AICARFT inhibition in low folate media assay (in words): still inhibit AICARFT

CCC1(C)CC(c2ccc(S(=O)(=O)Nc3cc4c(=O)[nH]ccc4cc3F)s2)=CNC1=O (single isomer, unassigned; isomer 1) [Example 84, 5-(5-Ethyl-5-methyl-6-oxo-1,4,5,6-tetrahydropyridin-3-yl)-N-(6-fluoro-1-oxo-1,2-dihydroisoquinolin-7-yl)thiophe2ne-2-sulfonamide, Isomer 1]
IC50: 0.0101 µM
AICARFT inhibition in low folate media assay (in words): still inhibit AICARFT

O=c1[nH]ccc2cc(F)c(NS(=O)(=O)c3ccc(N4CC[C@@H](O)C4)s3)cc12 [Example 1, N-(6-Fluoro-1-oxo-1,2-dihydroisoquinolin-7-yl)-5-[(3R)-3-hydroxypyrrolidin-1-yl]thiophene-2-sulfonamide]
AICARFT inhibition in low folate media assay (in words): still inhibit AICARFT

O=c1[nH]ccc2cc(F)c(NS(=O)(=O)c3ccc(N4C[C@@H](O)C(F)(F)C4)s3)cc12 [Example 41, 5-[(4R)-3,3-difluoro-4-hydroxypyrrolidin-1-yl]-N-(6-fluoro-1-oxo-1,2-dihydroisoquinolin-7-yl)thiophene-2-sulfonamide]
IC50: 0.0422 µM
AICARFT inhibition in low folate media assay (in words): still inhibit AICARFT

CC1(C)CC(c2ccc(S(=O)(=O)Nc3cc4c(=O)[nH]ccc4cc3F)s2)=CNC1=O [Example 81, 5-(5,5-Dimethyl-6-oxo-1,4,5,6-tetrahydropyridin-3-yl)-N-(6-fluoro-1-oxo-1,2-dihydroisoquinolin-7-yl)thiophene-2-sulfonamide]
IC50: 0.0102 µM
AICARFT inhibition in low folate media assay (in words): still inhibit AICARFT
